From patent US20260262643A1, “HERBICIDAL BENZOXAZINES” (FMC CORPORATION, priority 2022, published 2026)
Where two headings read alike, the source gives them in different places.

Key:
ragweed = test: Test A preemergence; assay type: in vivo, Ambrosia artemisiifolia; conditions: Ambrosia artemisiifolia, pre-emergence, 240 h, 0 to 100 scale, read-out: Plant response rating, Ragweed; for pest or weed control at 125 g/ha: 125 g ai/ha; for pest or weed control at 500 g/ha: 500 g ai/ha
Summary of the method: (§1)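 Loam/sand soil; pre-em directed soil spray at planting, post-em spray at 1–2 leaf (2–10 cm). Compound in non-phytotoxic solvent + surfactant. Greenhouse 10 d; visual injury vs untreated, 0 = no effect, 100 = complete control.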

ryegrass, Italian = test: Test A postemergence; assay type: in vivo, Lolium multiflorum; conditions: Lolium multiflorum, post-emergence, 240 h, postemergence, 10 days, 0 to 100 scale (0 no effect, 100 complete control); for pest or weed control at 125 g/ha: 125 g ai/ha, read-out: Ryegrass, Italian plant response rating; for pest or weed control at 500 g/ha: 500 g ai/ha, visual injury, read-out: Plant response rating, Ryegrass, Italian
Summary of the method: as §1

kochia = test: Test A postemergence; assay type: in vivo, Bassia scoparia; conditions: Bassia scoparia, post-emergence, 240 h, postemergence, 10 days, 0 to 100 scale (0 no effect, 100 complete control); for pest or weed control at 125 g/ha: 125 g ai/ha, read-out: Kochia plant response rating; for pest or weed control at 500 g/ha: 500 g ai/ha, visual injury, read-out: Plant response rating, Kochia
Summary of the method: as §1

oat, wild = test: Test A preemergence; assay type: in vivo, Avena fatua; conditions: Avena fatua, pre-emergence, 240 h, 0 to 100 scale, read-out: Plant response rating, Oat, Wild; for pest or weed control at 125 g/ha: 125 g ai/ha; for pest or weed control at 500 g/ha: 500 g ai/ha
Summary of the method: as §1

wheat [1] = test: Test A preemergence; assay type: in vivo, Triticum aestivum; conditions: Triticum aestivum, pre-emergence, 240 h, 0 to 100 scale, read-out: Plant response rating, Wheat; for plant injury at 125 g/ha: 125 g ai/ha; for plant injury at 500 g/ha: 500 g ai/ha
Summary of the method: as §1

ducksalad = test: Test B flooded paddy test; assay type: in vivo, Heteranthera limosa; conditions: Heteranthera limosa, 312 h, 250 g ai/ha, Flood, 13 days, 0 to 100 scale (0 no effect, 100 complete control); read-out: Plant response rating, Ducksalad
Summary of the method: (§2)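 Compound is introduced into paddy water covering soil by 3 cm, treating plants that have reached two leaves. Pots are kept flooded at that depth under greenhouse conditions. Assessment at 13 days gives a 0–100 visual control score.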

corn [2] = test: Test A postemergence; assay type: in vivo, Zea mays; conditions: Zea mays, post-emergence, 240 h, postemergence, 10 days, 0 to 100 scale (0 no effect, 100 complete control); for plant injury at 125 g/ha: 125 g ai/ha, read-out: Corn plant response rating; for Corn plant response rating (crop injury, 0 = no effect, 100 = complete kill) at 500 g/ha: 500 g ai/ha, visual injury
Summary of the method: as §1

foxtail, giant [3] = test: Test A postemergence; assay type: in vivo, Setaria faberi; conditions: Setaria faberi, post-emergence, 240 h, postemergence, 10 days, 0 to 100 scale (0 no effect, 100 complete control); for pest or weed control at 125 g/ha: 125 g ai/ha, read-out: Foxtail, Giant plant response rating; for pest or weed control at 500 g/ha: 500 g ai/ha, visual injury, read-out: Plant response rating, Foxtail, Giant
Summary of the method: as §1

foxtail, giant [4] = test: Test A preemergence; assay type: in vivo, Setaria faberi; conditions: Setaria faberi, pre-emergence, 240 h, 0 to 100 scale, read-out: Plant response rating, Foxtail, Giant; for pest or weed control at 125 g/ha: 125 g ai/ha; for pest or weed control at 500 g/ha: 500 g ai/ha
Summary of the method: as §1

corn [5] = test: Test A preemergence; assay type: in vivo, Zea mays; conditions: Zea mays, pre-emergence, 240 h, 0 to 100 scale; for Corn plant response rating (crop injury, 0 = no effect, 100 = complete kill) at 125 g/ha: 125 g ai/ha; for Corn plant response rating (crop injury, 0 = no effect, 100 = complete kill) at 500 g/ha: 500 g ai/ha
Summary of the method: as §1

rice = test: Test B flooded paddy test; assay type: in vivo, Oryza sativa; conditions: Oryza sativa, 312 h; 250 g ai/ha, Flood, 13 days, 0 to 100 scale (0 no effect, 100 complete control); read-out: Plant response rating, Rice
Summary of the method: as §2

soybean = test: Test A postemergence; assay type: in vivo, Glycine max; conditions: Glycine max, post-emergence, 240 h, postemergence, 10 days, 0 to 100 scale (0 no effect, 100 complete control); for plant injury at 125 g/ha: 125 g ai/ha, read-out: Soybean plant response rating; for plant injury at 500 g/ha: 500 g ai/ha, visual injury, read-out: Plant response rating, Soybean
Summary of the method: as §1

barnyardgrass = test: Test B flooded paddy test; assay type: in vivo, Echinochloa crus-galli; conditions: Echinochloa crus-galli, 312 h, 250 g ai/ha, Flood, 13 days, 0 to 100 scale (0 no effect, 100 complete control); read-out: Plant response rating, Barnyardgrass
Summary of the method: as §2

wheat [6] = test: Test A postemergence; assay type: in vivo, Triticum aestivum; conditions: Triticum aestivum, post-emergence, 240 h, postemergence, 10 days, 0 to 100 scale (0 no effect, 100 complete control); for plant injury at 125 g/ha: 125 g ai/ha, read-out: Wheat plant response rating; for plant injury at 500 g/ha: 500 g ai/ha, visual injury, read-out: Plant response rating, Wheat
Summary of the method: as §1

galium = test: Test A postemergence; assay type: in vivo, Galium aparine; conditions: Galium, post-emergence, 240 h, postemergence, 10 days, 0 to 100 scale (0 no effect, 100 complete control); for pest or weed control at 125 g/ha: 125 g ai/ha, read-out: Galium plant response rating; for pest or weed control at 500 g/ha: 500 g ai/ha, visual injury, read-out: Plant response rating, Galium
Summary of the method: as §1

[7] = visual injury after 10 days, 0 is no effect, 100 is complete control

Row | Structure (SMILES) | pest or weed control at 500 g/ha (ragweed; [7]) [%] | pest or weed control at 125 g/ha (ryegrass, Italian) [%] | pest or weed control at 500 g/ha (ryegrass, Italian) [%] | pest or weed control at 125 g/ha (kochia) [%] | pest or weed control at 500 g/ha (kochia) [%] | pest or weed control at 500 g/ha (oat, wild; [7]) [%] | plant injury at 500 g/ha (wheat [1]; [7]) [%] | pest or weed control at 250 g/ha (ducksalad) [%] | plant injury at 125 g/ha (corn [2]) [%] | Corn plant response rating (crop injury, 0 = no effect, 100 = complete kill) at 500 g/ha (corn [2]) [%] | pest or weed control at 125 g/ha (foxtail, giant [3]) [%] | pest or weed control at 500 g/ha (foxtail, giant [3]) [%] | pest or weed control at 500 g/ha (foxtail, giant [4]; [7]) [%] | Corn plant response rating (crop injury, 0 = no effect, 100 = complete kill) at 500 g/ha (corn [5]; [7]) [%] | plant injury at 250 g/ha (rice) [%] | plant injury at 125 g/ha (soybean) [%] | plant injury at 500 g/ha (soybean) [%] | pest or weed control at 250 g/ha (barnyardgrass) [%] | plant injury at 125 g/ha (wheat [6]) [%] | plant injury at 500 g/ha (wheat [6]) [%] | other results
1 | Cc1cccc2c1O[C@@H](C)CN2C(=O)c1cccc(-n2cn[nH]c2=O)c1 [Compound 122, 4-[3-[[(2S)-2,3-Dihydro-2,8-dimethyl-4H-1,4-benzoxazin-4-yl]carbonyl]phenyl]-2,4-dihydro-3H-1,2,4-triazol-3-one] | 0 | 0 | 30 | 30 | 50 | 20 | 0 | 0 | 10 | 60 | 20 | 50 | 90 | 10 | 0 | 50 | 90 | 0 | 10 | 10 | pest or weed control at 125 g/ha (ragweed; [7]): 0%; pest or weed control at 125 g/ha (oat, wild; [7]): 0%; plant injury at 125 g/ha (wheat [1]; [7]): 0%; pest or weed control at 125 g/ha (foxtail, giant [4]; [7]): 20%; Corn plant response rating (crop injury, 0 = no effect, 100 = complete kill) at 125 g/ha (corn [5]; [7]): 0%; pest or weed control at 125 g/ha (galium): 50%; pest or weed control at 500 g/ha (galium): 50%
2 | C[C@H]1CN(C(=O)c2cccc(-c3cnn(C)n3)c2)c2cccc(Cl)c2O1 [Compound 127, [(2S)-8-Chloro-2,3-dihydro-2-methyl-4H-1,4-benzoxazin-4-yl][3-(2-methyl-2H-1,2,3-triazol-4-yl)phenyl]methanone] | 0 | 10 | 50 | 60 | 90 | 20 | 0 | 0 | 20 | 50 | 50 | 90 | 100 | 0 | 0 | 100 | 100 | 0 | 10 | 20 | pest or weed control at 125 g/ha (ragweed; [7]): 0%; pest or weed control at 125 g/ha (oat, wild; [7]): 0%; plant injury at 125 g/ha (wheat [1]; [7]): 0%; pest or weed control at 125 g/ha (foxtail, giant [4]; [7]): 90%; Corn plant response rating (crop injury, 0 = no effect, 100 = complete kill) at 125 g/ha (corn [5]; [7]): 0%; pest or weed control at 125 g/ha (galium): 60%; pest or weed control at 500 g/ha (galium): 100%
3 | C[C@H]1CN(C(=S)c2cccc(-n3cncn3)c2)c2cccc(Cl)c2O1 [Compound 139, [(2S)-8-Chloro-2,3-dihydro-2-methyl-4H-1,4-benzoxazin-4-yl][3-(1H-1,2,4-triazol-1-yl)phenyl]methanethione] | 0 | 60 | 100 | 50 | 80 | 90 | 20 | 75 | 40 | 60 | 80 | 100 | 100 | 40 | 0 | 90 | 100 | 15 | 20 | 50 | pest or weed control at 125 g/ha (ragweed): 0%; pest or weed control at 125 g/ha (oat, wild): 20%; plant injury at 125 g/ha (wheat [1]): 20%; pest or weed control at 125 g/ha (foxtail, giant [4]): 90%; Corn plant response rating (crop injury, 0 = no effect, 100 = complete kill) at 125 g/ha (corn [5]): 0%; pest or weed control at 125 g/ha (galium): 80%; pest or weed control at 500 g/ha (galium): 90%
